Experimental findings from ChEMBL document CHEMBL4513160, “CO-ADD screening of MMV (CH) - Small Polar Library” are described below.

≈ marks a conversion by molar mass, not a printed value. Where only a bound is given, the exact number is not on record here.

Experiment [1] concerns Pseudomonas aeruginosa. Kind of experiment: Antibacterial activity against Pseudomonas aeruginosa PAO397 [PAO1 d(mexAB-oprM) d(mexCD-oprJ) d(mexEF-oprN) d(mexJKL) d(mexXY) d(opmH)] (CO-ADD:GN_211); MIC in CAMBH media using NBS plates, by OD(600). It is filed as functional. Conditions: ASSAY_TEST Inhibition of Bacterial Growth, detection method Absorption (OD600), MEDIA CAMHB, plate type 384well, CORNING #3640, time 18 hr.

For experiment [2], the system named is Pseudomonas aeruginosa. Kind of experiment: microbe, parasite or virus in culture. The settings on record: ATCC 27853, 18 h, ASSAY_TEST Inhibition of Bacterial Growth, detection method Absorption (OD600), MEDIA CAMHB, plate type 384well, NBS, CORNING #3640.
Description: Antibacterial activity against Pseudomonas aeruginosa ATCC 27853 (CO-ADD:GN_042); MIC in CAMBH media using NBS plates, by OD(600)
Experiment [3] relates to Acinetobacter baumannii. Kind of experiment: microbe, parasite or virus in culture. The settings on record: ATCC 19606, 18 h, ASSAY_TEST Inhibition of Bacterial Growth, detection method Absorption (OD600), MEDIA CAMHB, plate type 384well, NBS, CORNING #3640.
Description: Antibacterial activity against Acinetobacter baumannii ATCC 19606 (CO-ADD:GN_034); MIC in CAMBH media using NBS plates, by OD600

`O=C(NCCO)Nc1cc(F)ccc1N1CCCCC1`: the MIC in experiment [1] was 300 µM (≈ 84.4 µg/mL); in experiment [2], over 300 µM; in experiment [3], over 300 µM.

For the compound `COc1ccc(C2NC(=O)c3cccnc3N2)cc1F` (stereo not drawn), the MIC in experiment [1], in experiment [2] and in experiment [3] was over 300 µM each time.

For the compound `NCCNS(=O)(=O)c1ccc(F)c(C(F)(F)F)c1`, the MIC in experiment [1], in experiment [2] and in experiment [3] was over 300 µM in each case.

For `NCC(CO)Cc1ccc(Br)cc1` (stereo not drawn), the MIC in experiment [1], in experiment [2] and in experiment [3] was over 300 µM throughout.

For `CN(C)c1ccc(-c2[nH][nH]c(=O)c2CCN)cc1`, the MIC in experiment [1], in experiment [2] and in experiment [3] was over 300 µM throughout.

In the case of `Cc1ccc2c(N)noc2n1`, the MIC was 135 µM (≈ 20.1 µg/mL) in experiment [1], 135 µM (≈ 20.1 µg/mL) in experiment [2] and over 300 µM in experiment [3].

For the compound `CC(Sc1n[nH]c(-c2ccccn2)n1)C(=O)N(C)C` (stereo not drawn), the MIC in experiment [1], in experiment [2] and in experiment [3] was over 300 µM each time.

As for `Cn1ccc(C(=O)Nc2ccc(Br)cn2)n1`, the MIC in experiment [1], in experiment [2] and in experiment [3] was over 300 µM throughout.

Regarding `CCn1cc(C(=O)Nc2ccc(Br)cn2)cn1`, the MIC in experiment [1], in experiment [2] and in experiment [3] was over 300 µM in each case.

Take `CS(=O)(=O)N1CCSc2ccc(Cl)cc21`: the MIC in experiment [1], in experiment [2] and in experiment [3] was over 300 µM throughout.

For the compound `OCC(O)CNc1ccnc2ccc(Br)cc12` (stereo not drawn), the MIC in experiment [1], in experiment [2] and in experiment [3] was over 300 µM each time.

Regarding `NCC1CCN(CCc2ccccc2)C1` (stereo not drawn), the MIC in experiment [1], in experiment [2] and in experiment [3] was over 300 µM in each case.

On to `Cc1cc(NCCO)nc2ccccc12`, for which the MIC in experiment [1], in experiment [2] and in experiment [3] was over 300 µM throughout.

Take `CN(C(=O)CN)c1ccc(-c2ccccc2)cc1`: the MIC in experiment [1], in experiment [2] and in experiment [3] was over 300 µM each time.

For the compound `CC(=O)Nc1ccc(-c2ccc(C#N)nc2)cc1`, the MIC in experiment [1], in experiment [2] and in experiment [3] was over 300 µM throughout.

As for `Cn1ccnc1-c1noc(NC(=O)c2ccccn2)n1`, the MIC in experiment [1], in experiment [2] and in experiment [3] was over 300 µM throughout.

As to `NC(=O)CSc1nnc(-c2cc(Br)ccc2O)[nH]1`, the MIC in experiment [1], in experiment [2] and in experiment [3] was over 300 µM in each case.

As for `NC(=O)Nc1cccc(C(=O)Nc2ccc(Cl)cn2)c1`, the MIC in experiment [1], in experiment [2] and in experiment [3] was over 300 µM each time.

`CC(C)(N)C(O)c1ccc(Br)cc1` (stereo not drawn): the MIC in experiment [1], in experiment [2] and in experiment [3] was over 300 µM each time.

For the compound `COCCOc1ccc(CNC(=O)c2ccoc2)cn1`, the MIC in experiment [1] is over 300 µM; in experiment [2], 60 µM (≈ 16.6 µg/mL); in experiment [3], over 300 µM.

For `c1ccc2c(N3CCNCC3)cncc2c1`, the MIC in experiment [1], in experiment [2] and in experiment [3] was over 300 µM throughout.
